Source: PubChem BioAssay (NCI)
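GI50 marks 50% less growth. TGI: total growth inhibition.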

Columns and labels:
Assay in all cases: growth of human tumour cells (NCI), 384-well format
[1] = system: 786-0 renal
[2] = system: A498 renal
[3] = system: A549 NSCLC
[4] = system: ACHN renal
[5] = system: BT-549 breast
[6] = system: CAKI-1 renal
[7] = system: CCRF-CEM leukemia
[8] = system: COLO 205 colon
[9] = system: DU-145 prostate
[10] = system: EKVX NSCLC
[11] = system: HCC-2998 colon
[12] = system: HCT-116 colon
[13] = system: HCT-15 colon
[14] = system: HL-60(TB) leukemia
[15] = system: HOP-62 NSCLC
[16] = system: HOP-92 NSCLC
[17] = system: HT29 colon
[18] = system: IGROV1 ovarian
[19] = system: K-562 leukemia
[20] = system: KM12 colon
[21] = system: LOX IMVI melanoma
[22] = system: M14 melanoma
[23] = system: MALME-3M melanoma
[24] = system: MCF7 breast
[25] = system: MDA-MB-231 breast
[26] = system: MDA-MB-435 melanoma
[27] = system: MDA-MB-468 breast
[28] = system: MOLT-4 leukemia
[29] = system: NCI-H226 lung
[30] = system: NCI-H23 lung
[31] = system: NCI-H322M lung
[32] = system: NCI-H460 NSCLC
[33] = system: NCI-H522 lung
[34] = system: NCI/ADR-RES ovarian
[35] = system: OVCAR-3 ovarian
[36] = system: OVCAR-4 ovarian
[37] = system: OVCAR-5 ovarian
[38] = system: OVCAR-8 ovarian
[39] = system: PC-3 prostate
[40] = system: RPMI-8226 leukemia
[41] = system: RXF 393 renal
[42] = system: SF-268 CNS
[43] = system: SF-295 CNS
[44] = system: SF-539 CNS
[45] = system: SK-MEL-2 melanoma
[46] = system: SK-MEL-28 melanoma
[47] = system: SK-MEL-5 melanoma
[48] = system: SK-OV-3 ovarian
[49] = system: SN12C renal
[50] = system: SNB-19 CNS
[51] = system: SNB-75 CNS
[52] = system: SR leukemia
[53] = system: SW-620 colon
[54] = system: T-47D breast
[55] = system: TK-10 renal
[56] = system: U251 glioblastoma
[57] = system: UACC-257 melanoma
[58] = system: UACC-62 melanoma
[59] = system: UO-31 renal

Structure (SMILES): O=C1Cc2cc(C(=O)NC3C[C@H]4CC[C@@H](C3)N4S(=O)(=O)CC3CCN(CCCC(F)(F)F)CC3)c(Cl)cc2N1 (stereo partly drawn)
- GI50 [1]: > 100 µM
- TGI [1]: > 100 µM
- GI50 [2]: > 100 µM
- TGI [2]: > 100 µM
- GI50 [3]: > 51 µM
- TGI [3]: > 81 µM
- GI50 [4]: > 50.1 µM
- TGI [4]: > 77.9 µM
- GI50 [5]: > 49.1 µM
- TGI [5]: > 73.8 µM
- GI50 [6]: > 46.2 µM
- TGI [6]: > 65.5 µM
- GI50 [7]: > 43.8 µM
- TGI [7]: > 57.7 µM
- GI50 [8]: > 78 µM
- TGI [8]: > 100 µM
- GI50 [9]: > 51.2 µM
- TGI [9]: > 80 µM
- GI50 [10]: > 100 µM
- TGI [10]: > 100 µM
- GI50 [11]: > 100 µM
- TGI [11]: > 100 µM
- GI50 [12]: > 42 µM
- TGI [12]: > 56.5 µM
- GI50 [13]: > 46.3 µM
- TGI [13]: > 64.5 µM
- GI50 [14]: > 46.1 µM
- TGI [14]: > 60.4 µM
- GI50 [15]: > 49.6 µM
- TGI [15]: > 73.6 µM
- GI50 [16]: > 100 µM
- TGI [16]: > 100 µM
- GI50 [17]: > 100 µM
- TGI [17]: > 100 µM
- GI50 [18]: > 57.9 µM
- TGI [18]: > 100 µM
- GI50 [19]: > 42.3 µM
- TGI [19]: > 56.5 µM
- GI50 [20]: > 100 µM
- TGI [20]: > 100 µM
- GI50 [21]: 19.2 µM
- TGI [21]: 33.8 µM
- GI50 [22]: > 100 µM
- TGI [22]: > 100 µM
- GI50 [23]: > 100 µM
- TGI [23]: > 100 µM
- GI50 [24]: > 100 µM
- TGI [24]: > 100 µM
- GI50 [25]: > 100 µM
- TGI [25]: > 100 µM
- GI50 [26]: > 100 µM
- TGI [26]: > 100 µM
- GI50 [27]: 25.5 µM
- TGI [27]: 57.7 µM
- GI50 [28]: > 67 µM
- TGI [28]: > 100 µM
- GI50 [29]: > 100 µM
- TGI [29]: > 100 µM
- GI50 [30]: > 52.9 µM
- TGI [30]: > 71.2 µM
- GI50 [31]: > 100 µM
- TGI [31]: > 100 µM
- GI50 [32]: > 100 µM
- TGI [32]: > 100 µM
- GI50 [33]: > 44.7 µM
- TGI [33]: > 58.9 µM
- GI50 [34]: > 100 µM
- TGI [34]: > 100 µM
- GI50 [35]: > 45 µM
- TGI [35]: > 63.5 µM
- GI50 [36]: > 100 µM
- TGI [36]: > 100 µM
- GI50 [37]: > 49.9 µM
- TGI [37]: > 73.1 µM
- GI50 [38]: > 44.1 µM
- TGI [38]: > 61.9 µM
- GI50 [39]: > 52.1 µM
- TGI [39]: > 74.7 µM
- GI50 [40]: > 45.6 µM
- TGI [40]: > 59.3 µM
- GI50 [41]: > 78.5 µM
- TGI [41]: > 100 µM
- GI50 [42]: > 100 µM
- TGI [42]: > 100 µM
- GI50 [43]: > 100 µM
- TGI [43]: > 100 µM
- GI50 [44]: > 100 µM
- TGI [44]: > 100 µM
- GI50 [45]: > 87 µM
- TGI [45]: > 100 µM
- GI50 [46]: > 100 µM
- TGI [46]: > 100 µM
- GI50 [47]: > 43.5 µM
- TGI [47]: > 57.5 µM
- GI50 [48]: > 47.3 µM
- TGI [48]: > 72.8 µM
- GI50 [49]: > 62.4 µM
- TGI [49]: > 100 µM
- GI50 [50]: > 49.8 µM
- TGI [50]: > 74.9 µM
- GI50 [51]: > 100 µM
- TGI [51]: > 100 µM
- GI50 [52]: 38.7 µM
- TGI [52]: 99.3 µM
- GI50 [53]: > 58.1 µM
- TGI [53]: > 100 µM
- GI50 [54]: 60.3 µM
- TGI [54]: > 100 µM
- GI50 [55]: > 46.4 µM
- TGI [55]: > 65.3 µM
- GI50 [56]: > 100 µM
- TGI [56]: > 100 µM
- GI50 [57]: > 100 µM
- TGI [57]: > 100 µM
- GI50 [58]: > 100 µM
- TGI [58]: > 100 µM
- GI50 [59]: 23.2 µM
- TGI [59]: 47.5 µM
